# Measurements as given in publication PMC6891695, “Evaluation of Antifouling Potential and Ecotoxicity of Secondary Metabolites Derived from Red Algae of the Genus Laurencia” (Marine Drugs, 2019).
# pEC50: −log10 of the molar value.
# Assays:
# RTL-W1 cell line [1] = experiment: RTL-W1 crystal violet assay (cell viability); type: cell-based, rainbow trout; settings: for pEC50: Oncorhynchus mykiss, RTL-W1, Crystal violet assay, 48 h incubation; for crystal violet assay EC50 (in words): RTL-W1
# Procedure: (§1) The RTL-W1 cell line, a non-transformed rainbow trout liver cell line that has already been used in environmental toxicity assays, was established from the normal liver of an adult rainbow trout by proteolytic dissociation of liver fragments. RTL-W1 cells were cultured in 75 cm^2 culture flasks (Orange Scientific, Braine l’Alleud, Belgium) at 20 °C in Leibovitz’s (L-15, Sigma-Aldrich, St. Louis, MO, USA) medium supplemented with 5% fetal bovine serum (FBS) and 1% L-glutamine in CO2-free incubator. For the cytotoxicity assays of the selected secondary metabolites, cells were seeded at 3 × 10^4 cells/well density in a 96-well tissue culture plate (Orange Scientific Braine l’Alleud, Belgium) in 100 μL culture medium/well for 2 days before the assays. Three different cytotoxicity protocols were used: 1) The alamar blue/resazurin fluorometric/colorimetric cell viability assay to assess the metabolic capacity and mitochondrial function; 2) the crystal violet cell viability assay for indirect quantification of cell death; and 3) the neutral red cell proliferation assay for lysosomal activity. Two days after seeding the cells, cultures were incubated with various concentrations of selected secondary metabolites at 20 °C for 48 h before cell viability was assessed. […] For the alamar blue/resazurin fluorometric/colorimetric cell viability assay, 100 μL of 3 μg/100 μL Resazurin sodium salt (Sigma-Aldrich, St. Louis, MO, USA) in incubation medium was added on each well and incubated under sterile conditions at 20 °C for 4 h. For the crystal violet cell viability assay, after 48 h of incubation with each secondary metabolite, the culture medium was aspirated and cells were washed twice with sterile dd. H2O. The final wash was aspirated and 50 μL of 0.5% (w/v) crystal violet staining solution (20% methanol in dd. H2O) was added to each well followed by incubation for 20 min at room temperature on a bench rocker with a frequency of 20 oscillations per minute. The staining solution was then aspirated and the plate was washed four times with sterile dd. H2O and left to air-dry without its lid for 3 h at room temperature. Next, 200 μL of methanol was added to each well, and the plate was incubated with its lid on for 20 min at room temperature on a bench rocker with a frequency of 20 oscillations per minute. For the neutral red cell proliferation assay, after 48 h of incubation with each secondary metabolite, the culture medium was aspirated and cells were washed twice with phosphate-buffered saline (PBS, pH 7.4). Cells were then incubated with 100 μL of a 40 μg/mL neutral red staining solution in culture medium at 20 °C for 4 h followed by two washes with 150 μL of PBS. Then cells were incubated with 100 μL neutral red destain solution (50% ethanol, 49% dd. H2O, 1% glacial acetic acid) for 10 min on a bench rocker with a frequency of 80 oscillations per minute. Absorbance was read at 570 nm for alamar blue/resazurin and crystal violet and at 540 nm for neutral red using a Tecan infinite M200 Pro microplate reader. For each assay and each secondary metabolite, a minimum of four independent dose–response experiments with three replicates each were carried out. Calculations were carried out using detailed formulas (AbCam, Cambridge, UK, and results were analyzed with GraphPad Prism v.6.
# (§2) For EC50 or IC50 (the concentration that results in 50% stimulation or inhibition relative to the control) calculations in GraphPad Prism v.6, all data were fitted to the curve according to the following models for normalized response: Y = 100/(1 + 10^((X − LogIC50))) or Y = 100/(1 + 10^((LogEC50 − X))) depending on the trend of the curve.
# RTL-W1 cell line [2] = experiment: RTL-W1 neutral red assay (lysosome activity); type: cell-based, rainbow trout; settings: Oncorhynchus mykiss, 48 h incubation
# Procedure: as §1, with “For the neutral red cell proliferation assay, after 48 h of incubation with each secondary metabolite, the culture medium was aspirated and cells were washed twice with phosphate-buffered saline (PBS, pH 7.4). Cells were then incubated with 100 μL of a 40 μg/mL neutral red staining solution in culture medium at 20 °C for 4 h followed by two washes with 150 μL of PBS. Then cells were incubated with 100 μL neutral red destain solution (50% ethanol, 49% dd. H2O, 1% glacial acetic acid) for 10 min on a bench rocker with a frequency of 80 oscillations per minute.” left out, “For each assay and each secondary metabolite, a minimum of four independent dose–response experiments with three replicates each were carried out.” left out, “v.6. […]” for “v.6.”
# HEK293 cell line = experiment: HEK293 neutral red assay (lysosome activity); type: cell-based, human; settings: for pEC50: Homo sapiens, HEK293, Neutral red assay, 48 h incubation; for effect on lysosomal activity (in words): HEK293
# Procedure: as §1
# HEK293 cells, a human embryotic kidney cell line, were obtained from ATCC (ATCC® CRL-1573™) at passage 37 of the original clone and used at passage 38. Cells were cultured routinely in 75 cm^2 culture flasks (Orange Scientific, Braine l’Alleud, Belgium) at 37 °C (5% CO2) in DMEM cell culture medium (Biosera) supplemented with 10% FBS (Sigma-Aldrich, St. Louis, MO, USA) and 1% L-glutamine. All assay conditions and protocols were identical to those described above for RTL-W1 cells with the exception that incubations were carried out at 37 °C. […]
# [3] = Artemia salina toxicity assay; type: in vivo; settings: Artemia salina, in vivo, read-out: EC50 Artemia salina toxicity (mortality)
# Procedure: The short-term toxicity assay with A. salina nauplii was used to determine the toxicity of secondary metabolites. Hatching of A. salina nauplii was carried out in ASW (35‰) using 0.5 g of cysts incubated in 500 mL seawater at a temperature of 25 ± 1 °C and lateral illumination (1000 Lux). All cysts were kept in continuous suspension with aeration and 24 h later hatched larvae (instar I) were harvested. Toxicity assays were carried out in three independent experiments in 24-well plates with four replicates of each tested concentration. Ten nauplii per well were transferred with a Pasteur pipette into the 24-well plates and each well was filled with 2 mL of ASW and 50 μL of various concentrations of the tested compounds in methanol. Control treatments received 50 μL of methanol. Plates were incubated in the dark at 25 ± 1 °C for 48 h. Mortality was assessed by recording the number of individuals with no movement of their appendages within 10 seconds and is expressed as the percentage of the total number of assessed individuals for each concentration.
# as §2
SMILES,pEC50 (RTL-W1 cell line [1]),crystal violet assay EC50 (in words) (RTL-W1 cell line [1]),pEC50 (RTL-W1 cell line [2]),pEC50 (HEK293 cell line),LC50 at 24 h [3],LC50 at 48 h [3],effect on lysosomal activity (in words) (HEK293 cell line)
"CC(C)[C@@H]1CC=C[C@H]2[C@H]3[C@](C)(CC[C@]12CBr)[C@@H](Br)CC[C@@]3(C)O [Bromosphaerol, reference compound]",6.24,sub-micromolar,3.84,3.47,–,–,–
"CC1=C2CC[C@@](C)(Cl)[C@@H](Br)C[C@]2(C)[C@@H](C)[C@@H](Br)[C@@H]1O [Compound 9, perforenol]",4.80,–,< 3.00,< 3.00,283 µM,189 µM,not affected
C=CC(C)(O)CC[C@@H]1C(=C)CC[C@@H](Br)[C@@]1(C)CCC1OC1(C)C (some centres unmarked) [Compound 18],6.34,sub-micromolar,3.86,< 3.00,34.9 µM,38.1 µM,not affected
"C=C(C1CCC(C)(O)C(Br)C1)C1C(Br)C2C(CCC2(C)O)C1(C)C (centres unmarked) [Compound 19, neorogioldiol]",4.89,–,< 3.00,< 3.00,31.5 µM,304 µM,not affected
